Experiments:
[1] = isosteric functionality compared with a carboxylic group; cited from earlier work
GABA-AT [2] = target: T1, GABA-AT (Sus scrofa, UniProt P80147); assay: Preliminary substrate activity test with [14C]-labeled α-ketoglutarate; format: biochemical, pig; conditions: for Converted α-KG: incubation time 48 h, GABA-AT 0.7 μM, substrate 2.5 mM, α-KG 2.9 mM; for substrate activity for GABA-AT (in words): preliminary test, 48 h incubation
Excerpt: Tetrazole derivative 5 was the most efficient of the synthesized substrates. The tetrazole group was the best bioisostere for the carboxylic acid group in this series of compounds tested.

GABA-AT [3] = target: T1, GABA-AT; assay: Time-dependent inhibition of GABA-AT (Kitz and Wilson replot); format: biochemical, pig; conditions: for time-dependent inhibition of GABA-AT (in words): 9 and 10 compared with 8 at the same concentration
Protocol: Aliquots (20 μL) were withdrawn at timed intervals and were added immediately to the assay solution (575 μL) followed by the addition of excess SSDH (5 μL). The reaction rates were measured by a UV-vis spectrophotometer at 340 nm. […] A Kitz and Wilson replot was used to determine the kinetic constants kinact and KI, as referenced above.

GABA-AT [4] = target: T1, GABA-AT; assay: Time-independent inhibition of GABA-AT; format: biochemical, pig; conditions: 1-10 mM inhibitor, 25° C., read-out: estimated IC50
Excerpt: The percentage of remained enzyme activity was obtained by comparison to that of an untreated enzyme control. The logarithm of the percentage of remained activity is plotted versus the concentration of the inhibitors to calculate IC50 values.

[5] = time-dependent inhibition, 25 ° C., pH 8.5

T1 sequence (P80147 29-500): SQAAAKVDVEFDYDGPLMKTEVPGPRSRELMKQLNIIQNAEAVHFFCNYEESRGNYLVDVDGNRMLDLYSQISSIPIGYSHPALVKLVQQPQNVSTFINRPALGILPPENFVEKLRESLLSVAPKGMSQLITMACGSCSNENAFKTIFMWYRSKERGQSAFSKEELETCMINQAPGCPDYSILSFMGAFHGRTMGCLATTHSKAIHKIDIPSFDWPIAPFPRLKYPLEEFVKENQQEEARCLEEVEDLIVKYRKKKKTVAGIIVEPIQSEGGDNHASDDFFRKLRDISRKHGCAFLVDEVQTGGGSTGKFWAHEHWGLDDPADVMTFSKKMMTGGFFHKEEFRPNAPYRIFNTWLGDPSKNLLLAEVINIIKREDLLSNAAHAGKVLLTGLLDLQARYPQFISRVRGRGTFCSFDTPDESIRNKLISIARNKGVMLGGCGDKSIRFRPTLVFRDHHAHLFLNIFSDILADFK

SMILES | Converted α-KG (GABA-AT [2]) [%] | substrate activity for GABA-AT (in words) (GABA-AT [2]) | time-dependent inhibition of GABA-AT (in words) (GABA-AT [3]) | further results
NCc1ccc2[nH]ccc2c1 [Compound 4, Indole-5-methanamine] | 0.1 | little or no substrate activity | – | –
NCCc1nnn[nH]1 [Compound 5, 1H-Tetrazole-5-ethanamine] | 20 | substrates for GABA-AT | – | –
C=CC(N)CCc1nnn[nH]1 (stereo not drawn) [Compound 8, 1H-Tetrzole-5-(α-vinyl-propanamine)] | – | – | showed time-dependent inhibition | times less efficient (kinact/KI) than vigabatrin (GABA-AT [3]; relative to racemic vigabatrin): 6.6 times; kinact/KI (GABA-AT [3]; time-dependent inhibition): 2.17 M⁻¹ s⁻¹; Ki (GABA-AT [3]; [5]): 5.6 mM; kinact (GABA-AT [3]; [5]): 0.0122 s⁻¹
C=CC(N)CCc1nnn(C)n1 (stereo not drawn) [Compound 9, 2-Methyl-2H-tetrazole-5-(α-vinyl-propanamine)] | – | – | Neither 9 nor 10 showed time-dependent inhibition | IC50 (GABA-AT [4]): > 10 mM
C=CC(N)CCc1nnnn1C (stereo not drawn) [Compound 10, 1-methyl-1H-tetrazole-5-(α-vinyl-propanamine)] | – | – | Neither 9 nor 10 showed time-dependent inhibition | IC50 (GABA-AT [4]): > 10 mM

Continued, in another order:

Converted α-KG (GABA-AT [2]) [%] | substrate activity for GABA-AT (in words) (GABA-AT [2]) | SMILES | time-dependent inhibition of GABA-AT (in words) (GABA-AT [3]) | further results
1.3 | substrates for GABA-AT | COC(=O)NC(=O)CCN [Compound 2, Methyl β-alanylcarbamate] | – | pKa [1]: ~8
6.4 | substrates for GABA-AT | CS(=O)(=O)NC(=O)CCN [Compound 3, Methyl b-alanylsulfonamide] | – | pKa [1]: comparable to that of a carboxylic acid
25 | – | NCCCC(=O)O [GABA, γ-aminobutyric acid, reference compound] | – | –

— patent US20070105924A1 (priority 2005, published 2007)
